# Data from US6765010B2, “Compositions and methods for enhancing analgesic potency of tramadol and attenuating its adverse side effects” (Pain Therapeutics, Inc., priority 1999, dated 2004).
# Like-named read-outs stand apart in the source and are kept apart here.
# Assays:
# [1] = test system: human subjects/patients with pain following dental surgery; format: in vivo
# [2] = test system: human subjects/patients with pain following dental surgery; assay: Dental surgery pain study: visual analog scale pain intensity difference (VAS-PID, VAS-SPID); format: in vivo; conditions: LOCF; for Hourly Visual Analog-PID (VAS-PID) score, Mean / Hourly Visual Analog-PID (VAS-PID) score, Median: ITT subjects
# [3] = test system: human subjects/patients with pain following dental surgery; assay: Dental surgery pain study: global evaluations; format: in vivo; conditions: ITT
# Source text: For this randomized, double-blind, active-controlled and placebo-controlled, parallel-group study, human subjects were randomized into one of the following five treatment groups:
# A positive control (T, Group 4) was used to determine the sensitivity of the clinical end points. A negative control (placebo, Group 5) was used to establish the frequency and magnitude of changes in clinical end points that may occur in the absence of an active treatment. A single oral dose of study medication was administered when the subject experienced moderate to severe pain following the surgical extraction of three or four third molars. At least one of the molars was required to be mandibular bony impacted.
# At the end of eight hours, or at the termination of hourly observations if sooner than eight hours, a global assessment was made by the subject and the observer in response to the question, “How do you rate the pain relief?” with response choices of excellent, very good, good, fair or poor. Assessment of adverse events continued for at least one hour following rescue medication. Subjects not completing at least the Hour 1 observation period were considered not evaluable for efficacy and were replaced.
# [4] = test system: human subjects/patients with pain following dental surgery; assay: Dental surgery pain study: adverse events; conditions: ITT
compound,measurement,setting,value
"COc1cccc([C@@]2(O)CCCC[C@@H]2CN(C)C)c1.Cl (racemic) [tramadol, (1RS,2RS)-2[(dimethylamino)-methyl]-1-(3-methoxyphenyl)-cyclohexanol HCL]","Hourly Pain Relief Score (PAR), Mean","[1]; Hour 0.5, ITT",0.28
same,"Hourly Pain Relief Score (PAR), Median","[1]; Hour 0.5, ITT",0
same,"Hourly Pain Relief Score (PAR), Mean","[1]; Hour 1, ITT",0.40
same,"Hourly Pain Relief Score (PAR), Median","[1]; Hour 1, ITT",0
same,"Hourly Pain Relief Score (PAR), Mean","[1]; Hour 2, ITT",0.76
same,"Hourly Pain Relief Score (PAR), Median","[1]; Hour 2, ITT",0
same,"Hourly Pain Relief Score (PAR), Mean","[1]; Hour 3, ITT",0.80
same,"Hourly Pain Relief Score (PAR), Median","[1]; Hour 3, ITT",0
same,"Hourly Pain Relief Score (PAR), Mean","[1]; Hour 4, ITT",0.94
same,"Hourly Pain Relief Score (PAR), Median","[1]; Hour 4, ITT",0
same,"Hourly Pain Relief Score (PAR), Mean","[1]; Hour 5, ITT",0.84
same,"Hourly Pain Relief Score (PAR), Median","[1]; Hour 5, ITT",0
same,"Hourly Pain Relief Score (PAR), Mean","[1]; Hour 6, ITT",0.86
same,"Hourly Pain Relief Score (PAR), Median","[1]; Hour 6, ITT",0
same,"Hourly Pain Relief Score (PAR), Mean","[1]; Hour 7, ITT",0.82
same,"Hourly Pain Relief Score (PAR), Median","[1]; Hour 7, ITT",0
same,"Hourly Pain Relief Score (PAR), Mean","[1]; Hour 8, ITT",0.86
same,"Hourly Pain Relief Score (PAR), Median","[1]; Hour 8, ITT",0
same,"TOTPAR up to 4 Hours, Mean","[1]; ITT, single oral dose, LOCF",3.18
same,"TOTPAR up to 4 Hours, Median","[1]; ITT, single oral dose, LOCF",2
same,"TOTPAR up to 6 Hours, Mean","[1]; ITT, single oral dose, LOCF",4.88
same,"TOTPAR up to 6 Hours, Median","[1]; ITT, single oral dose, LOCF",2
same,"TOTPAR up to 8 Hours, Mean","[1]; ITT, single oral dose, LOCF",6.56
same,"TOTPAR up to 8 Hours, Median","[1]; ITT, single oral dose, LOCF",2
same,"Hourly Visual Analog-PID (VAS-PID) score, Mean",[2]; Hour 0.5,−6.16
same,"Hourly Visual Analog-PID (VAS-PID) score, Median",[2]; Hour 0.5,−4
same,"Hourly Visual Analog-PID (VAS-PID) score, Mean",[2]; Hour 1,−7.54
same,"Hourly Visual Analog-PID (VAS-PID) score, Median",[2]; Hour 1,−7
same,"Hourly Visual Analog-PID (VAS-PID) score, Mean",[2]; Hour 2,−2.58
same,"Hourly Visual Analog-PID (VAS-PID) score, Median",[2]; Hour 2,−4
same,"Hourly Visual Analog-PID (VAS-PID) score, Mean",[2]; Hour 3,−1.76
same,"Hourly Visual Analog-PID (VAS-PID) score, Median",[2]; Hour 3,−2
same,"Hourly Visual Analog-PID (VAS-PID) score, Mean",[2]; Hour 4,1.50
same,"Hourly Visual Analog-PID (VAS-PID) score, Median",[2]; Hour 4,−2
same,"Hourly Visual Analog-PID (VAS-PID) score, Mean",[2]; Hour 5,1.16
same,"Hourly Visual Analog-PID (VAS-PID) score, Median",[2]; Hour 5,−2
same,"Hourly Visual Analog-PID (VAS-PID) score, Mean",[2]; Hour 6,1.36
same,"Hourly Visual Analog-PID (VAS-PID) score, Median",[2]; Hour 6,−2
same,"Hourly Visual Analog-PID (VAS-PID) score, Mean",[2]; Hour 7,−1.10
same,"Hourly Visual Analog-PID (VAS-PID) score, Median",[2]; Hour 7,−2
same,"Hourly Visual Analog-PID (VAS-PID) score, Mean",[2]; Hour 8,−0.02
same,"Hourly Visual Analog-PID (VAS-PID) score, Median",[2]; Hour 8,−2
same,"VAS-SPID up to 4 Hours, Mean","[2]; ITT, single oral dose",−16.54
same,"VAS-SPID up to 4 Hours, Median","[2]; ITT, single oral dose",−19
same,"VAS-SPID up to 6 Hours, Mean","[2]; ITT, single oral dose",−14.02
same,"VAS-SPID up to 6 Hours, Median","[2]; ITT, single oral dose",−18
same,"VAS-SPID up to 8 Hours, Mean","[2]; ITT, single oral dose",−15.14
same,"VAS-SPID up to 8 Hours, Median","[2]; ITT, single oral dose",−27
same,"Global Evaluation, Observer Evaluation: Excellent",[3],2 (4.0%) n (%)
same,"Global Evaluation, Observer Evaluation: Fair",[3],13 (26.0%) n (%)
same,"Global Evaluation, Observer Evaluation: Good",[3],5 (10.0%) n (%)
same,"Global Evaluation, Observer Evaluation: Poor",[3],25 (50.0%) n (%)
same,"Global Evaluation, Observer Evaluation: Very Good",[3],5 (10.0%) n (%)
same,"Global Evaluation, Subject Evaluation: Excellent",[3],1 (2.0%) n (%)
same,"Global Evaluation, Subject Evaluation: Fair",[3],13 (26.0%) n (%)
same,"Global Evaluation, Subject Evaluation: Good",[3],4 (8.0%) n (%)
same,"Global Evaluation, Subject Evaluation: Poor",[3],26 (52.0%) n (%)
same,"Global Evaluation, Subject Evaluation: Very Good",[3],6 (12.0%) n (%)
same,Adverse events: Number (%) with Events,[4]; Severity = Severe,3 (6.0%) n (%)
same,Adverse events: Number of Events,[4]; Severity = Severe,3 events
same,"Gastrointestinal Disorders, frequency (percentage)",[4]; Severity = Severe,2 (4.0%) n (%)
same,"Gastrointestinal Disorders, occurrence",[4]; Severity = Severe,2 events
same,"Headache Nos, frequency (percentage)",[4]; Severity = Severe,1 (2.0%) n (%)
same,"Headache Nos, occurrence",[4]; Severity = Severe,1 events
same,"Nausea, frequency (percentage)",[4]; Severity = Severe,2 (4.0%) n (%)
same,"Nausea, occurrence",[4]; Severity = Severe,2 events
same,"Nervous System Disorders, frequency (percentage)",[4]; Severity = Severe,1 (2.0%) n (%)
same,"Nervous System Disorders, occurrence",[4]; Severity = Severe,1 events
same,"Vomiting Nos, frequency (percentage)",[4]; Severity = Severe,1 (2.0%) n (%)
same,"Vomiting Nos, occurrence",[4]; Severity = Severe,1 events
same,Adverse events: Number (%) with Events,[4]; all severities,40 (80%) n (%)
same,Adverse events: Number of Events,[4]; all severities,134 events
same,"Dizziness (Exc Vertigo), frequency (percentage)",[4]; all severities,15 (30.0%) n (%)
same,"Dizziness (Exc Vertigo), occurrence",[4]; all severities,19 events
